Columns and labels:
Nurr1:RXR heterodimer = Nurr1:RXR heterodimer (Homo sapiens, UniProt P19793+P43354); experiment: Nurr1 LBD:RXRα LBD heterodimerization assay (HTRF); type: biochemical; conditions: 30 μM, Tb3+-cryptate Nurr1 LBD and sGFP-RXRα LBD
Procedure: (§1) To determine the molecular response of the Nurr1:RXR heterodimer on dual agonist binding, we employed homogenous time-resolved fluorescence resonance energy transfer (HTRF) based assays with labeled Nurr1 and RXR LBD proteins. Tb^3+-cryptate as streptavidin conjugate served as FRET donor and was coupled to biotinylated proteins. sGFP fusion proteins of the receptors of interest were used as FRET acceptors. Ligand effects on dimer formation were determined by titrating the sGFP-labeled dimer partner with a fixed concentration of the Tb^3+-labeled counterpart. […] The same effect was also observable for the natural product 1 (Figure S3).
(§2) Nurr1 dimerization assays (HTRF). Modulation of Nurr1 LBD homodimerization and heterodimerization of the LDBs of Nurr1 and RXRα was investigated by HTRF as reported previously4. Nurr1 LBD or RXRα LBD proteins labeled with sGFP were titrated against a fixed concentration of Tb3+-cryptate as streptavidin conjugate (Tb-SA) (610SATLF, Revvity) coupled to biotinylated Nurr1 LBD protein in the presence of test compounds at 30 µM or absence of compound as a negative control (apo). Assay solutions were prepared in buffer containing 25 mM HEPES pH 7.5, 150 mM KF, 5% (m/v) glycerol, 5 mM DTT, 0.1% (m/v) CHAPS and 1%
(§3) DMSO. The FRET donor complex was formed from biotinylated Nurr1 LBD (final concentration 0.188 nM) and Tb-SA (0.375 nM) and was kept constant. For the homodimerization assay, the FRET acceptor consisted of sGFP-Nurr1 LBD, which was titrated from 0.5 µM, while free sGFP was added to keep the total GFP content stable at 0.5 µM. […] Samples were equilibrated at room temperature for 2 h and fluorescence intensities (FI) after excitation at 340 nm were recorded at 520 nm for sGFP acceptor fluorescence and at 620 for Tb-SA donor fluorescence on a SPARK plate reader (Tecan Group Ltd.). […]
(§4) Evaluation of Nurr1-regulated gene expression. […] RNA concentration and purity were assessed using a NanoDrop One UV-vis spectrophotometer (Thermo Fisher Scientific) at 260/280 nm. […]

Nurr1 homodimer = target: T1, Nurr1 homodimer (Homo sapiens, UniProt P43354); experiment: Nurr1 LBD homodimerization assay (HTRF); type: biochemical; conditions: 30 μM, Tb3+-cryptate and sGFP labeled Nurr1 LBD
T1 construct: Tb^3+-cryptate labeled and sGFP-labeled Nurr1 LBD proteins; FRET acceptor consisted of sGFP-Nurr1 LBD
T1 sequence (P43354 360-595 limits assumed): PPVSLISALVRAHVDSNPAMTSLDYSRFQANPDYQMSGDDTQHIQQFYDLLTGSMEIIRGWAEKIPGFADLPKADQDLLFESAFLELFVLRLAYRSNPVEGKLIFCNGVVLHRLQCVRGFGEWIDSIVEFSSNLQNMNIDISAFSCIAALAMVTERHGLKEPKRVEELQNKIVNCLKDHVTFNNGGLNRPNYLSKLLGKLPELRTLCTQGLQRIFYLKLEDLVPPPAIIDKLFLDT
Procedure: as §1, §2, §3, §4

Nurr1:RXR heterodimer, sequence (P43354 360-595 limits assumed): as above
Nurr1:RXR heterodimer, sequence (P19793 227-458 limits assumed): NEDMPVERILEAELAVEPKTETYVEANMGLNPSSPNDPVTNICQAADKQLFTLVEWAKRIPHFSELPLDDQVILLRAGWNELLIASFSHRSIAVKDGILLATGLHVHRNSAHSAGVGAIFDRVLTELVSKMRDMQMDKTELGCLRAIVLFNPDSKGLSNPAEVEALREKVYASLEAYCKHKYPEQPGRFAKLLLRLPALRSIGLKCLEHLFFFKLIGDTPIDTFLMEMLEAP

| Structure (SMILES) | Nurr1:RXR heterodimer formation (Nurr1:RXR heterodimer) | Nurr1 homodimer formation (Nurr1 homodimer) |
| --- | --- | --- |
| Cc1c2c(n(-c3ccc(CC(=O)O)cc3)c1C)CCC(F)(F)C2 [compound 2] | left the dimer intact | markedly diminished |
| Cc1c(C)n(-c2ccc(CC(=O)O)cc2)c2ccc(F)cc12 [compound 3] | left the dimer intact | markedly diminished |
